In patent publication US12319679B2, “Morpholinyl, piperazinyl, oxazepanyl and diazepanyl O-glycoprotein-2-acetamido-2-deoxy-3-d-glucopyranosidase inhibitors” (BIOGEN MA INC., priority 2018, dated 2025):
pIC50: −log10 of the molar value.

Each compound was assayed against T1, Recombinant full length human OGA enzyme (Homo sapiens, UniProt O60502) (assay: OGA Enzyme Inhibition Biochemical Assay). Conditions: 1 nM OGA, 100 μM 4-MUGlcNAc (Km), pH 6.4, 90 minutes at room temperature; 10-point dose-response starting from 20 μM.
T1 construct: Recombinant full length human OGA enzyme was purchased from Origene; purchased Origene
T1 sequence (O60502 1-916): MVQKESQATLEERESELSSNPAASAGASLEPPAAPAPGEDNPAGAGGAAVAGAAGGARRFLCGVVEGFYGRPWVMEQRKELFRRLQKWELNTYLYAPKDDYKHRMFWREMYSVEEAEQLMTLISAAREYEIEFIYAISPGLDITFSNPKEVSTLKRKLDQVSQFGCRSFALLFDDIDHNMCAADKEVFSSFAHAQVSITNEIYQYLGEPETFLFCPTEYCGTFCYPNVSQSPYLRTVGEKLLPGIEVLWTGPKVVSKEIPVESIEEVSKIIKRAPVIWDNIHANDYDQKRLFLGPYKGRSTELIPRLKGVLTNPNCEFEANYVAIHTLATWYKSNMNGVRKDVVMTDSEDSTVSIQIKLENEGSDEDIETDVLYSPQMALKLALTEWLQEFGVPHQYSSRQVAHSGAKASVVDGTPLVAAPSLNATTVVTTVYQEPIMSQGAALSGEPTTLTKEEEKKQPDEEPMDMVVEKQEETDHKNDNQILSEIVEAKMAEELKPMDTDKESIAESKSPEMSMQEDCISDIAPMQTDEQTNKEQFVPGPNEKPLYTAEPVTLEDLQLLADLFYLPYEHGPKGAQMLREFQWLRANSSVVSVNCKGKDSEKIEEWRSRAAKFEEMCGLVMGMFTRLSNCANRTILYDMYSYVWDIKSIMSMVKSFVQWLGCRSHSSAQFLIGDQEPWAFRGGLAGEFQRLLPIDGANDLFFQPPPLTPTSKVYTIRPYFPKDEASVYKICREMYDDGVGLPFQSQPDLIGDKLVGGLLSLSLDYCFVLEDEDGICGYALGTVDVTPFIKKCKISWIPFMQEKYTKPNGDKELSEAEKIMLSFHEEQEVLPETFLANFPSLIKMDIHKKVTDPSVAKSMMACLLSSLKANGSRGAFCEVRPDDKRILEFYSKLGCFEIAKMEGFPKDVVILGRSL
Procedure: OGA Enzyme Inhibition Biochemical Assay
Recombinant full length human OGA enzyme was purchased from Origene. 4-MUGlCNAc substrate was purchased from Sigma. All other reagents were purchased from Sigma or Fisher. Assay buffer consists of the McIlvaine buffer system, pH 6.4 (0.2M Na2HPO4 mixed with 0.1M citric acid) and 0.01% BSA. Reactions consist of 1 nM OGA, 100 μM 4-MUGlcNAc (Km), and compound in a final volume of 10 μl. Reactions were incubated for 90 minutes at room temperature and quenched with 40 μl of 3M glycine, pH 10 and read on a Perkin Elmer Envision plate reader (Ex: 355 nm/Em: 460 nm). Compounds were tested with a 10-point dose-response starting from 20 μM with a 4-fold dilution. Data was fit using GraphPad Prism using a 4-paramter fit with variable slope.

pIC50 | Structure (SMILES)
7.72 | CC(=O)Nc1ncc(CN2CCOCC(Cc3cc(C)nc(C)c3)C2)s1 (racemic) [Example 1-42, N-(5-((6-((2,6-dimethylpyridin-4-yl)methyl)-1,4-oxazepan-4-yl)methyl)thiazol-2-yl)acetamide]
6.57 | COc1cc(CC2CN(Cc3cnc(NC(C)=O)s3)CCCO2)ccn1 (single isomer, unassigned) [Example 1-41 Peak 2]
7.77 | CC(=O)Nc1ncc(CN2C[C@@H](Cc3ncc(F)cn3)N(C)C[C@@H]2C)s1 [Example 2-6, N-(5-(((2S,5R)-5-((5-fluoropyrimidin-2-yl)methyl)-2,4-dimethylpiperazin-1-yl)methyl)thiazol-2-yl)acetamide]
4.92 | CC(=O)Nc1ncc(CN2C[C@H](Cc3ncc(F)cn3)OC[C@H]2C)s1 [Example 1-29, N-(5-(((2S,5R)-2-((5-fluoropyrimidin-2-yl)methyl)-5-methylmorpholino)methyl)thiazol-2-yl)acetamide]
6.70 | CC(=O)Nc1ncc(CN2CCO[C@H](Cc3cc(C)c(F)cn3)C2)s1 [Example 1-18, (R)—N-(5-((2-((5-fluoro-4-methylpyridin-2-yl)methyl)morpholino)methyl)thiazol-2-yl)acetamide]
6.44 | CC(=O)Nc1ncc(C(C)N2CCO[C@H](Cc3ncc(F)cn3)C2)s1 (single isomer, unassigned) [Example 1-23 Peak 2]
5.17 | CC(=O)Nc1ncc(CN2CCNC(Cc3ccnc(C)c3)C2)s1 (single isomer, unassigned) [Example 4-8 Peak 1]
7.35 | CC(=O)Nc1ncc(CN2CCCOC(Cc3ncc(F)cn3)C2)s1 (racemic) [Example 1-38, N-(5-((2-((5-fluoropyrimidin-2-yl)methyl)-1,4-oxazepan-4-yl)methyl)thiazol-2-yl)acetamide]
5.70 | CC(=O)Nc1ncc(CN2CCN(C)[C@@H](Cc3ccc(C)nc3)C2)s1 [Example 4-16, (S)—N-(5-((4-methyl-3-((6-methylpyridin-3-yl)methyl)piperazin-1-yl)methyl)thiazol-2-yl)acetamide]
7.51 | CC(=O)Nc1ncc(CN2C[C@@H](Cc3ccc(C)nc3)OC[C@@H]2C)s1 [Example 1-33, N-(5-(((2R,5S)-5-methyl-2-((6-methylpyridin-3-yl)methyl)morpholino)methyl)thiazol-2-yl)acetamide]
6.96 | CC(=O)Nc1ncc(CN2CCO[C@H](Cc3ccc(C)nc3)C2)s1 [Example 1-19, (R)—N-(5-((2-((6-methylpyridin-3-yl)methyl)morpholino)methyl)thiazol-2-yl)acetamide]
7.72 | CC(=O)Nc1ncc(CN2CCOCC(Cc3cc(C)nc(C)c3)C2)s1 (single isomer, unassigned) [Example 1-43 Peak 1]
6.18 | CC(=O)Nc1ncc(CN2CCN(C)[C@@H](Cc3ccnc(C)c3)C2)s1 [Example 4-10, (S)—N-(5-((4-methyl-3-((2-methylpyridin-4-yl)methyl)piperazin-1-yl)methyl)thiazol-2-yl)acetamide]
7.72 | CC(=O)Nc1ncc(CN2C[C@@H](Cc3ncc(F)cn3)NC[C@@H]2C)s1 [Example 2-5]
7.38 | COc1cc(CC2COCCN(Cc3cnc(NC(C)=O)s3)C2)ccn1 (racemic) [Example 1-46, N-(5-((6-((2-methoxypyridin-4-yl)methyl)-1,4-oxazepan-4-yl)methyl)thiazol-2-yl)acetamide]
6.59 | CC(=O)Nc1ncc(CN2CCO[C@H](Cc3ccnc(C(F)F)c3)C2)s1 [Example 1-13]
8.05 | CC(=O)Nc1ncc(CN2C[C@@H](Cc3cc(C)nc(C)c3)OC[C@@H]2C)s1 [Example 1-31]
5.39 | COc1cc(CC2CN(Cc3cnc(NC(C)=O)s3)CCN2)ccc1F (single isomer, unassigned) [Example 4-6 Peak 2]
7.41 | COc1cc(CC2CN(Cc3cnc(NC(C)=O)s3)CCCO2)ccn1 (single isomer, unassigned) [Example 1-41 Peak 1]
6.07 | COc1cc(CC2CN(Cc3cnc(NC(C)=O)s3)CCN2)ccn1 (single isomer, unassigned) [Example 2-22 Peak 2]

pIC50 | Structure (SMILES)
8.28 | CC(=O)Nc1ncc(CN2CCOC(C(C)c3ncc(F)cn3)C2)s1 (single isomer, unassigned) [Example 1-25 Peak 1]
7.66 | CC(=O)Nc1ncc(CN2C[C@@H](Cc3cc(C)nc(C)n3)NC[C@@H]2C)s1 [Example 2-13]
5.23 | CC(=O)Nc1ncc(CN2C[C@@H](Cc3cc(C)nc(C)c3)N(C(C)=O)C[C@@H]2C)s1 [Example 2-15, N-(5-(((2S,5R)-4-acetyl-5-((2,6-dimethylpyridin-4-yl)methyl)-2-methylpiperazin-1-yl)methyl)thiazol-2-yl)acetamide]
< 4.70 | COc1cc(CC2CN(Cc3cnc(NC(C)=O)s3)CCN2C)ccn1 (single isomer, unassigned) [Example 4-12 Peak 2]
7.47 | CC(=O)Nc1ncc(CN2C[C@@H](Cc3cc(C)nc(C)c3)N(C)C[C@@H]2C)s1 [Example 2-10]
7.77 | CC(=O)Nc1ncc(CN2C[C@@H](COc3cc(C)nc(C)c3)OC[C@@H]2C)s1 [Example 3-4, N-(5-(((2S,5S)-2-(((2,6-dimethylpyridin-4-yl)oxy)methyl)-5 methylmorpholino)methyl)thiazol-2-yl)acetamide]
6.00 | COc1cc(CC2COCCN(Cc3cnc(NC(C)=O)s3)C2)ccn1 (single isomer, unassigned) [Example 1-47 Peak 1]
8.04 | CC(=O)Nc1ncc(CN2C[C@@H](Cc3cc(C)nc(C)c3)NC[C@@H]2C)s1 [Example 2-8, N-(5-(((2S,5R)-5-((2,6-dimethylpyridin-4-yl)methyl)-2-methylpiperazin-1-yl)methyl)thiazol-2-yl)acetamide]
6.57 | CC(=O)Nc1ncc(CN2CCO[C@H](Cc3ccnc(OC(C)C)c3)C2)s1 [Example 1-12, (R)—N-(5-((2-((2-isopropoxypyridin-4-yl)methyl)morpholino)methyl)thiazol-2-yl)acetamide]
4.96 | COc1cc(C[C@H]2CN(Cc3cnc(NC(C)=O)s3)CCO2)ccn1 [Example 1-4, (S)—N-(5-((2-((2-methoxypyridin-4-yl)methyl)morpholino)methyl)thiazol-2-yl)acetamide]
7.42 | CC(=O)Nc1ncc(CN2CCOCC(Cc3cc(C)nc(C)c3)C2)s1 (single isomer, unassigned) [Example 1-43 Peak 2]
7.14 | CC(=O)Nc1ncc(CN2CCOC(C(C)c3ncc(F)cn3)C2)s1 (single isomer, unassigned) [Example 1-25 Peak 2]
5.82 | CC(=O)Nc1ncc(CN2CCO[C@H](Cc3ccnc(C(F)(F)F)n3)C2)s1 [Example 1-9]
4.85 | COc1nccc(CC2CN(Cc3cnc(NC(C)=O)s3)CCN2)c1F (single isomer, unassigned) [Example 4-18 Peak 1]
< 4.70 | CC(=O)Nc1ncc(CN2CCN(C)[C@H](Cc3ccnc(C)c3)C2)s1 [Example 4-9, (R)—N-(5-((4-methyl-3-((2-methylpyridin-4-yl)methyl)piperazin-1-yl)methyl)thiazol-2-yl)acetamide]
6.85 | CC(=O)Nc1nc(F)c(CN2CCO[C@H](Cc3ccc(C)nc3)C2)s1 [Example 1-48, (R)—N-(4-fluoro-5-((2-((6-methylpyridin-3-yl)methyl)morpholino)methyl)thiazol-2-yl)acetamide]
8.12 | COc1cc(C[C@@H]2CN(Cc3cnc(NC(C)=O)s3)[C@@H](C)CN2)ccn1 [Example 2-14, N-(5-(((2S,5R)-5-((2-methoxypyridin-4-yl)methyl)-2-methylpiperazin-1-yl)methyl)thiazol-2-yl)acetamide]
6.82 | CC(=O)Nc1ncc(CN2C[C@H](Cc3ncc(F)cn3)OC[C@@H]2C)s1 [Example 1-28, N-(5-(((2S,5S)-2-((5-fluoropyrimidin-2-yl)methyl)-5-methylmorpholino)methyl)thiazol-2-yl)acetamide]
6.87 | CC(=O)Nc1ncc(CN2CCO[C@H](Cc3ccnc(OC(F)F)c3)C2)s1 [Example 1-17, (R)—N-(5-((2-((2-(difluoromethoxy)pyridin-4-yl)methyl)morpholino)methyl)thiazol-2-yl)acetamide]
